Counter-ions that a name gives are not always drawn. Like-named read-outs stand apart in the source and are kept apart here.

Data set [1] can be described thus: Oral absorption and plasma concentrations, rats. Type of data set: in vivo, rat. The conditions noted are these: after oral administration of III. The method, then: (§1) This is supported by the observations of plasma concentrations of 3 to 7 μg/ml one hour after oral administration of III, 50 to 300 mg/kg.
The nature of data set [2]: Oral absorption and plasma concentrations, dogs. Type of data set: in vivo, dog. The conditions noted are these: after oral administration of III. The method, then: as §1
Data set [3] relates to IgG (hyperimmune antiserum) PCA reaction. Nature of the data set: Oral activity in PCA test, IgG. Type of data set: in vivo. The conditions noted are these: Rattus norvegicus. The method, then:
(§2) The antiallergy property of the compounds of this invention is evaluated by the passive cutaneous anaphylaxis (PCA) test (Ovary, J. Immun., 81, 355, 1958). In the PCA test, normal animals are injected intradermally (i.d.) with antibodies contained in serum obtained from actively sensitized animals. The animals are then challenged intravenously with antigen mixed with a dye such as Evans' Blue. The increased capillary permeability caused by the antigen-antibody reaction causes the dye to leak from the site of the antibody injection. The test animals are then asphyxiated and the intensity of the reaction determined by measuring the diameter and intensity of the blue coloration on the inner surface of the animals' skin.
(§3) The ability of agents to interfere with PCA reactions is measured in male Charles River Wistar rats, 170-210 g. Reaginic antiserum, rich in IgE antibodies, is prepared according to Petillo et al., Int. Arch. Allergy, 44, 309 (1973). Hyperimmune antiserum rich in IgG antibodies to hen egg albumin is prepared according to Orange et al., J. Exptl. Med., 127, 767 (1968). Forty-eight hours prior to antigen challenge, the reaginic antiserum is injected intradermally (i.d.) into the shaved skin of a normal rat's back; 5 hours before challenge the hyperimmune antisera is similarly injected. At a third site 60 mcg. histamine dihydrochloride and 0.5 mcg. serotonin creatinine sulfate are injected i.d. just prior to antigen challenge as a check for antihistaminic, antiserotonin and unspecific types of blockage; the compounds of the instant invention or saline are then administered i.v. and immediately followed by the challenge of 5 mg. egg albumen and 2.5 mg. Evans' Blue dye in saline. In the case of oral administration Evans' Blue dye and egg albumin are given 5 minutes after administration of the drug. Thirty minutes later the animals are asphyxiated using chloroform and the skin of the back removed and reversed for observation. A score is assigned each injection site equal to the product of the diameter of the site in mm. and a grade of 0.1, 0.5, 1, 2, 3 or 4 proportional to intensity of dye coloration. The scores for a given injection site are summed for each group of five animals and compared to the saline treated controls. The difference is expressed as percent blockage due to the compound employed.
Compounds representative of those of the present invention are tested for antiallergy activity by the above-described procedure and the resulting activities are reported as the degree (%) of protection.

Data set [4] can be described thus: Plasma levels after repeated daily dosing. Type of data set: in vivo. The conditions noted are these: after the eighth daily dose of III. The method, then:
as §1

The subject of data set [5] is ethanol-induced ulcer. The data set is described as follows: Ethanol-induced rat ulcer assay. Type of data set: in vivo. To be noted: oral, 5 mg./kg.; for % Inhibition in the Ethanol-Induced Rat Ulcer Assay, acids: Table IV; for % Inhibition in the Ethanol-Induced Rat Ulcer Assay, amides: Table III. The method, then:
Alternatively, the effectiveness of the products of this invention as antiulcer agents is determined in an ethanol-induced rat ulcer assay. In this test, overnight fasted male rats are given drug (5 mg./kg.) or water orally fifteen minutes prior to an orally administered dose of absolute ethanol (1.0 ml.). One hour after the ethanol challenge the animals (8/group) are killed and the stomachs examined for the presence of lesions. All drugs were dissolved in dilute NaOH. After sacrifice the abdomen is opened and a locking hemostat placed at the pylorus. 6 ml. of a 4% solution of formaldehyde was injected into the stomach with a gastric feeding tube and a second locking hemostat was used to seal the esophagus. The stomach was removed, opened along the greater curvature and examined for ulceration.
The scoring system used to quantitate the ethanol-induced lesions is given below.
For each group of animals an ulcer index is calculated as follows:
Ulceration Index=(the sum of the scores of the group)×(the sum of the number of ulcers in the group)×(the fraction of the group having any incidence of ulceration).
The percentage inhibition of ulcers is calculated as follows:
% Inhibition=100×[(ulcer index controls)-(ulcer index drug-treated)].div.(ulcer index controls).

The subject of data set [6] is IgE (reaginic antiserum) PCA reaction. Nature of the data set: Oral activity in PCA test, IgE. Type of data set: in vivo, rat. The conditions noted are these: Rattus norvegicus, IgE, oral. The method, then:
as §2
The PCA test is a measure of the anti-allergic (especially anti-asthmatic) activity of a compound. Compounds which inhibit a positive PCA test induced by the rat immunochemical counterpart of human immunoglobulin E (IgE), or reagin, are considered to have anti-allergic activity (C. Mota, Ann. N.Y. Acad. Sci., 103, 264 1963). (Reagin is primarily immunoglobulin E [IgE] and is the principal immunoglobulin responsible for allergic asthma, anaphylaxis, hay fever, food sensitivities and certain manifestations of drug sensitivities, although recent evidence ascribes to the IgG class of antibodies a significant role in the mediation of allergic diseases). Such compounds when administered to a sensitized subject, human or animal, prior to the time when the subject comes into contact with antigens or substances to which it is allergic, will prevent the allergic reaction which would otherwise occur. They, therefore, provide a method for the prophylactic treatment of allergy or anaphylactic reactions of a reagin mediated nature.
To put it another way, such compounds block the release of mediators resulting from the antigen-antibody (allergic) reaction as illustrated in the PCA test using rat homocytotropic antibody--a known correlate of human reaginic antibody. Inhibition of reaginic antigen-antibody reactions in rats, the test animal of the PCA test, is regarded as representative of inhibition of human reaginic antigen-antibody reactions which occur during allergic episodes.
as §3, with “employed. […]” for “employed.”

A short description of data set [7]: Water solubility and hygroscopicity. Type of data set: physicochemical.
Where [8] appears, read: Table II acids, read-out: Oral Activity (% of Protection) of Acids in the PCA Test, IgG.
The mark [9] stands for this setting: Table II acids, read-out: Oral Activity (% of Protection) of Acids in the PCA Test, IgE.
The mark [10] stands for this setting: read-out: Oral Activity (% of Protection) in the PCA Test, IgG.
[11] abbreviates: read-out: Oral Activity (% of Protection) in the PCA Test, IgE.
The mark [12] stands for this setting: Table I amides, read-out: Oral Activity (% of Protection) in the PCA Test, IgG.
Setting [13] is: Table I amides, read-out: Oral Activity (% of Protection) in the PCA Test, IgE.

Take `O=C(O)c1cnc2sc3c(n2c1=O)CCCC3` [Formula II: (CH2)4, 1-Oxo-1H-cyclohexenothiazolo[3,2-a]pyrimidine-2-carboxylic Acid]: the “plasma levels of carboxylic acid metabolite” value in data set [1] and in data set [2] was “comparable to those of III” each time. The inhibition in vivo at 10 mg/kg came out at 39% in data set [3] (10 mg./kg., Table II acids, read-out: Oral Activity (% of Protection) of Acids in the PCA Test, IgG) and 55% in data set [6] (10 mg./kg., Table II acids, read-out: Oral Activity (% of Protection) of Acids in the PCA Test, IgE). Besides, the “levels after the eighth daily dose relative to initial dose” value in data set [4] lay in the range of 2 to 4 times. The “% Inhibition in the Ethanol-Induced Rat Ulcer Assay, acids” value (shortened to “% Inhibition … acids”) in data set [5] was determined as 21%.

Take `CCc1cn2c(=O)c(C(=O)O)cnc2s1` [Formula II: R1=C2H5, R2=H, 1-Oxo-1H-6-ethylthiazolo[3,2-a]pyrimidine-2-carboxylic Acid]: the inhibition in vivo at 30 mg/kg in data set [3] (setting [8]) is 38%; in data set [6] (setting [9]), 45%. Further, in data set [5], the “% Inhibition … acids” value was 48%.

As to `Cc1csc2ncc(C(=O)Nc3nnn[nH]3)c(=O)n12` [Formula I: R1=H, R2=CH3, N-(5-Tetrazolyl)-1-oxo-1H-7-methylthiazolo[3,2-a]pyrimidine-2-carboxamide], the inhibition in vivo at 3 mg/kg in data set [3] (setting [10]) worked out at 50%; in data set [6] (setting [11]) it was 55%. For the same compound, the “% Inhibition in the Ethanol-Induced Rat Ulcer Assay, amides” value (“% Inhibition … amides” for short) in data set [5] was 59%.

`Cc1sc2ncc(C(=O)Nc3nnn[nH]3)c(=O)n2c1C` [Formula I: R1=CH3, R2=CH3, N-(5-Tetrazolyl)-1-oxo-1H-6,7-dimethylthiazolo[3,2-a]pyrimidine-2-carboxamide]: the inhibition in vivo at 3 mg/kg in data set [3] (setting [10]) was determined as 51%; in data set [6] (setting [11]), 55%. Besides, the “% Inhibition … amides” value in data set [5] came to 96%.

Turning to `Cc1sc2ncc(C(=O)O)c(=O)n2c1C` [Formula II: R1=CH3, R2=CH3, 1-Oxo-1H-6,7-dimethylthiazolo[3,2-a]pyrimidine-2-carboxylic Acid], the inhibition in vivo at 30 mg/kg in data set [3] (setting [8]) and in data set [6] (setting [9]) was 0% in each case. The “% Inhibition … acids” value in data set [5] worked out at 11%.

Consider `O=C(Nc1nnn[nH]1)c1cnc2sc3c(n2c1=O)CCCCCC3` [Formula I: (CH2)6, N-(5-Tetrazolyl)-1-oxo-1H-cyclooctenothiazolo[3,2-a]pyrimidine-2-carboxamide], for which the inhibition in vivo at 30 mg/kg stood at 57% in data set [3] (setting [12]) and 94% in data set [6] (setting [13]). In data set [5], the “% Inhibition … amides” value is 45%.

Take `O=C(Nc1nnn[nH]1)c1cnc2sc3c(n2c1=O)CCCC3` [sodium salt (trihydrate), sodium N-(5-tetrazolyl)-1-oxo-1H-cyclohexenothiazolo[3,2-a]pyrimidine-2-carboxamide trihydrate]: in data set [7], the hygroscopicity result is “non-hygroscopic” and the water solubility result is “good water solubility”.

On to `CCc1cn2c(=O)c(C(=O)Nc3nnn[nH]3)cnc2s1` [Formula I: R1=C2H5, R2=H, N-(5-Tetrazolyl)-1-oxo-1H-6-ethylthiazolo[3,2-a]pyrimidine-2-carboxamide], for which the figures for the inhibition in vivo at 30 mg/kg in data set [3] (setting [12]) and in data set [6] (setting [13]) were 58% and 85%, respectively. The “% Inhibition … amides” value in data set [5] is 86%.

With `Cc1csc2ncc(C(=O)O)c(=O)n12` [Formula II: R1=H, R2=CH3, 1-Oxo-1H-7-methylthiazolo[3,2-a]pyrimidine-2-carboxylic acid], the inhibition in vivo at 30 mg/kg in data set [3] (setting [8]) was found to be 19%; in data set [6] (setting [9]), 18%. In addition, the “% Inhibition … acids” value in data set [5] came out at 27%.

Take `CCc1sc2ncc(C(=O)O)c(=O)n2c1CC` [Formula II: R1=C2H5, R2=C2H5, 1-Oxo-1H-6,7-diethylthiazolo[3,2-a]pyrimidine-2-carboxylic Acid]: the values for the inhibition in vivo at 30 mg/kg in data set [3] (setting [8]) and in data set [6] (setting [9]) were 32% and 41%, respectively. In data set [5], the “% Inhibition … acids” value stood at 48%.

Take `Cc1cn2c(=O)c(C(=O)O)cnc2s1` [Formula II: R1=CH3, R2=H, 1-Oxo-1H-6-methylthiazolo[3,2-a]pyrimidine-2-carboxylic Acid]: the inhibition in vivo at 30 mg/kg in data set [3] (setting [8]) worked out at 14%; in data set [6] (setting [9]), 12%. In addition, in data set [5], the “% Inhibition … acids” value was 0%.

Consider `Cc1cn2c(=O)c(C(=O)Nc3nnn[nH]3)cnc2s1` [Formula I: R1=CH3, R2=H, N-(5-Tetrazolyl)-1-oxo-1H-6-methylthiazolo[3,2-a]pyrimidine-2-carboxamide], for which the inhibition in vivo at 30 mg/kg amounted to 55% in data set [3] (setting [12]) and 78% in data set [6] (setting [13]). Further, the “% Inhibition … amides” value in data set [5] was 72%.

In the case of `CCc1sc2ncc(C(=O)Nc3nnn[nH]3)c(=O)n2c1CC` [Formula I: R1=C2H5, R2=C2H5, N-(5-Tetrazolyl)-1-oxo-1H-6,7-diethylthiazolo[3,2-a]pyrimidine-2-carboxamid], the inhibition in vivo at 30 mg/kg is 49% in data set [3] (setting [12]) and 62% in data set [6] (setting [13]). Moreover, the “% Inhibition … amides” value in data set [5] is 10%.

The record behind these values is US4535081A, “Antiallergic and antiulcer 1-oxo-1H-thiazolo[3,2-a]pyrimidine-2-carboxamides and intermediates therefor” (Pfizer Inc., priority 1983, dated 1985).
